Measurements published in US11214803B2, “Modulators of YAP1 expression” (Ionis Pharmaceuticals, Inc., priority 2019, dated 2022).
Strand notation (5' to 3'): a small letter for the sugar, then the base; units joined by * are phosphorothioate-linked, units joined directly phosphodiester-linked; [ ] holds rarer units or linkages, { } end groups; capitals alone tell only the bases. k = constrained ethyl (cEt); [5mC] = 5-methylcytosine; d = 2'-deoxy (DNA)

Test system: Yap1 mRNA
Experiment: Antisense inhibition of human Yap1 in A-431 cells by cEt gapmers, single dose (Example 3, RTS36584)
Assay type: cell-based
Details: Table 8; A-431 cells, 5,000 cells per well, free uptake, 2,000 nM, approximately 48 hours; RTS36584; normalized to RIBOGREEN; Yap1 mRNA relative to untreated control cells
Outline: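 A-431 cells were treated by free uptake with 2,000 nM modified oligonucleotide (3-10-3 cEt gapmers, full phosphorothioate, 5-methylcytosines) for about 48 hours. Yap1 mRNA was quantified by real-time RT-PCR, normalized to RiboGreen total RNA, and expressed as % of untreated control; asterisked values mark oligonucleotides targeting the amplicon region.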

First: 958421 (antisense k[5mC]*kT*k[5mC]*d[5mC]*dG*dT*dG*dG*dT*dG*dA*dT*d[5mC]*k[5mC]*k[5mC]*kA) [Compound 958421]
Second: 958388 (antisense kG*kG*kA*dG*dG*d[5mC]*dG*d[5mC]*dG*d[5mC]*dG*d[5mC]*dA*kT*kT*kG) [Compound 958388]
The “YAP1 (% UTC)” value of the first is lower: 13 % UTC for the first, 112 % UTC for the second.

With “958365 (antisense kG*k[5mC]*k[5mC]*dA*dT*dG*dT*dT*dG*dT*dT*dG*dT*k[5mC]*kT*kG) [Compound 958365]” the “YAP1 (% UTC)” value was 34 % UTC.

Same assay, conditions: Table 9; A-431 cells, 5,000 cells per well, free uptake, 2,000 nM, approximately 48 hours; RTS36584; normalized to RIBOGREEN; Yap1 mRNA relative to untreated control cells

Going from “958591 (kT*k[5mC]*kA*d[5mC]*dA*dG*dT*dA*d[5mC]*dT*dG*d[5mC]*dT*kA*k[5mC]*kA; antisense) [Compound 958591]” to “958601 (k[5mC]*k[5mC]*kT*dT*dT*dA*dA*dA*dG*dG*d[5mC]*dA*d[5mC]*kT*kA*k[5mC]; antisense) [Compound 958601]”, the “YAP1 (% UTC)” value falls from 38 % UTC to 17 % UTC.

In the case of “958666 (kG*kA*kA*dA*dA*dG*dG*dG*d[5mC]*dA*dA*dT*d[5mC]*kA*kT*kA; antisense) [Compound 958666]”, the “YAP1 (% UTC)” value is reported as 52 % UTC.

Same assay, conditions: Table 10; A-431 cells, 5,000 cells per well, free uptake, 2,000 nM oligonucleotide, approx. 48 hours; primer probe set RTS36584; Yap1 mRNA normalized to RIBOGREEN, percent of untreated control

Compared with “958617 (antisense kG*kA*kG*dG*dT*dG*dG*dT*d[5mC]*dT*dT*dG*dT*kT*k[5mC]*kT) [Compound 958617]”, “958797 (antisense kA*k[5mC]*kG*dA*dG*d[5mC]*dA*d[5mC]*dA*dG*d[5mC]*dA*d[5mC]*k[5mC]*k[5mC]*kT) [Compound 958797]” is lower in “YAP1 (% UTC)” value: 40 % UTC for the first, 13 % UTC for the second.

Same assay, conditions: Table 11; A-431 cells, 5,000 cells per well, free uptake, 2,000 nM oligonucleotide, approx. 48 hours; primer probe set RTS36584; Yap1 mRNA normalized to RIBOGREEN, percent of untreated control

First: 958763 (antisense k[5mC]*kA*k[5mC]*dA*dA*dT*dA*d[5mC]*dA*dA*dG*dA*dT*kG*k[5mC]*kA) [Compound 958763]
Second: 958543 (kA*k[5mC]*k[5mC]*dT*dT*dA*dT*dA*dG*dT*dA*dT*dT*k[5mC]*kT*kA; antisense) [Compound 958543]
The “YAP1 (% UTC)” value of the first is lower: 3 % UTC for the first, 4 % UTC for the second.

First: 958468 (antisense kT*kT*kG*dG*dT*dG*dG*d[5mC]*dA*dG*d[5mC]*d[5mC]*dA*kA*kA*kA) [Compound 958468]
Second: 958573 (kG*kG*k[5mC]*dA*dA*dA*dT*dT*dA*dT*dA*dG*dG*k[5mC]*kA*k[5mC]; antisense) [Compound 958573]
The “YAP1 (% UTC)” value of the first is higher: 86 % UTC for the first, 2 % UTC for the second.

Going from “958583 (kA*kG*k[5mC]*dT*dA*dA*dT*d[5mC]*dT*dG*d[5mC]*dT*dG*kA*kT*kA; antisense) [Compound 958583]” to “958758 (antisense k[5mC]*kT*kA*dT*dT*d[5mC]*dA*dG*dT*dG*dA*dT*d[5mC]*kT*kG*k[5mC]) [Compound 958758]”, the “YAP1 (% UTC)” value falls from 89 % UTC to 2 % UTC.

Same assay, conditions: Table 12; A-431 cells, 5,000 cells per well, free uptake, 2,000 nM modified oligonucleotide, approx. 48 hours; RTS36584; normalized to RIBOGREEN; Yap1 mRNA relative to untreated control cells

First: 958594 (k[5mC]*kT*k[5mC]*dT*dT*dA*dG*dG*dT*d[5mC]*dT*d[5mC]*d[5mC]*kT*kT*k[5mC]; antisense) [Compound 958594]
Second: 958759 (antisense kG*k[5mC]*k[5mC]*dT*dA*dT*d[5mC]*dG*d[5mC]*d[5mC]*d[5mC]*d[5mC]*dA*kA*kG*k[5mC]) [Compound 958759]
The “YAP1 (% UTC)” value of the first is lower: 8 % UTC for the first, 61 % UTC for the second.

First: 958604 (kA*k[5mC]*kG*d[5mC]*dT*dA*dG*dA*dA*dA*dA*dG*dT*kG*kT*kT; antisense) [Compound 958604]
Second: 958809 (kT*k[5mC]*kT*dT*dA*dA*d[5mC]*dA*d[5mC]*d[5mC]*dT*dG*dA*kG*k[5mC]*kT; antisense) [Compound 958809]
The “YAP1 (% UTC)” value of the first is higher: 94 % UTC for the first, 66 % UTC for the second.

Same assay, conditions: Table 13; A-431 cells, 5,000 cells per well, free uptake, 2,000 nM modified oligonucleotide, approx. 48 hours; RTS36584; normalized to RIBOGREEN; Yap1 mRNA relative to untreated control cells

Compared with “958535 (kG*kG*kG*dT*d[5mC]*dA*dA*dT*dT*dT*dT*d[5mC]*dA*kG*k[5mC]*kA; antisense) [Compound 958535]”, “958820 (kG*kA*k[5mC]*d[5mC]*dA*dG*dT*dA*dA*dG*dA*dA*dG*k[5mC]*k[5mC]*kA; antisense) [Compound 958820]” is higher in “YAP1 (% UTC)” value: 10 % UTC for the first, 49 % UTC for the second.

First: 958805 (k[5mC]*kA*kA*dG*dA*dT*dA*dA*dT*d[5mC]*dA*dT*d[5mC]*k[5mC]*kT*k[5mC]; antisense) [Compound 958805]
Second: 958475 (antisense k[5mC]*k[5mC]*kG*dG*dT*dG*d[5mC]*dA*dT*dG*dT*dG*dT*k[5mC]*kT*k[5mC]) [Compound 958475]
The “YAP1 (% UTC)” value of the first is lower: 6 % UTC for the first, 37 % UTC for the second.

Same assay, conditions: Table 26; Yap1 mRNA by 3-10-3 cEt gapmers targeting SEQ ID NO.: 1, and 2; percent of untreated control

Going from “1074220 (antisense kA*kA*kT*dG*dA*dG*d[5mC]*dT*d[5mC]*dG*dA*dA*d[5mC]*kA*kT*kG) [compound 1074220]” to “1075340 (antisense k[5mC]*k[5mC]*k[5mC]*dG*dA*dA*d[5mC]*dA*d[5mC]*d[5mC]*d[5mC]*dA*dA*kA*kA*kA) [compound 1075340]”, the “YAP1 (% UTC)” value rises from 22 % UTC to 103 % UTC.

Same assay, conditions: Table 27; Yap1 mRNA by 3-10-3 cEt gapmers targeting SEQ ID NO.: 1, and 2; percent of untreated control

Going from “1074349 (antisense k[5mC]*kT*kG*dT*dA*d[5mC]*dT*d[5mC]*dT*d[5mC]*dA*dT*d[5mC]*kT*k[5mC]*kG) [compound 1074349]” to “1075789 (kA*kA*kT*dT*dA*d[5mC]*dA*dA*dG*d[5mC]*dT*dA*dA*kT*kG*k[5mC]; antisense) [compound 1075789]”, the “YAP1 (% UTC)” value rises from 30 % UTC to 79 % UTC.

Same assay, conditions: Table 28; Yap1 mRNA as percent of untreated control; 3-10-3 cEt gapmers targeting SEQ ID NO.: 1, and 2

First: 1075598 (antisense kA*kA*kT*dT*dA*dA*d[5mC]*dA*dT*dT*dT*dG*d[5mC]*k[5mC]*k[5mC]*kG) [compound 1075598]
Second: 1076302 (kA*kA*kT*dA*dA*dG*d[5mC]*d[5mC]*dT*d[5mC]*dA*d[5mC]*d[5mC]*kT*kT*kT; antisense) [compound 1076302]
The “YAP1 (% UTC)” value of the first is lower: 62 % UTC for the first, 74 % UTC for the second.

With “1075662 (antisense kA*kA*kG*dG*dG*dA*dT*dA*d[5mC]*dA*dA*dG*dT*kG*kT*kT) [compound 1075662]” the “YAP1 (% UTC)” value was 78 % UTC.

Same assay, conditions: Table 29; Yap1 mRNA as percent of untreated control; 3-10-3 cEt gapmers targeting SEQ ID NO.: 1, and 2

First: 1075471 (antisense kA*kG*k[5mC]*d[5mC]*dA*dA*dT*dA*dA*dG*dT*dT*dA*kT*k[5mC]*kA) [compound 1075471]
Second: 1074703 (antisense k[5mC]*kG*kG*dT*dG*dT*dA*dA*dG*dA*d[5mC]*dA*dA*kG*kT*k[5mC]) [compound 1074703]
The “YAP1 (% UTC)” value of the first is higher: 55 % UTC for the first, 16 % UTC for the second.

“1074799 (kT*kG*k[5mC]*dT*dT*dT*dG*dG*dA*dA*dG*dA*dT*k[5mC]*kT*kG) [compound 1074799]” and “1075119 (kA*kG*kG*dG*dA*dA*dT*dA*dT*dG*dT*dT*dA*kA*kT*k[5mC]; antisense) [compound 1075119]” are the same in “YAP1 (% UTC)” value: 8 % UTC for the first, 8 % UTC for the second.

Same assay, conditions: Table 34; Yap1 mRNA as percent of untreated control; 3-10-3 cEt gapmers targeting SEQ ID NO: 1 and 2; single dose

Compared with “1074708 (antisense k[5mC]*kT*kT*dT*dA*dA*dT*dG*dG*d[5mC]*dA*dG*d[5mC]*kA*k[5mC]*kG) [compound 1074708]”, “1076244 (k[5mC]*kA*kA*dT*dT*dT*dG*dG*dG*dA*dT*dA*dT*kT*k[5mC]*kG; antisense) [compound 1076244]” is lower in “YAP1 (% UTC)” value: 55 % UTC for the first, 14 % UTC for the second.

For “1076212 (k[5mC]*kA*kA*dA*dT*dT*dT*dA*dT*dA*dT*dG*d[5mC]*kT*k[5mC]*k[5mC]; antisense) [compound 1076212]”, the “YAP1 (% UTC)” value was 15 % UTC.

Same assay, conditions: Table 35; Yap1 mRNA as percent of untreated control; 3-10-3 cEt gapmers targeting SEQ ID NO: 1 and 2; single dose

First: 1074293 (antisense kG*k[5mC]*kT*dG*dT*dT*dT*d[5mC]*dA*d[5mC]*dT*dG*dG*kA*kG*k[5mC]) [compound 1074293]
Second: 1075509 (k[5mC]*kA*kT*dA*dA*dT*d[5mC]*d[5mC]*d[5mC]*dT*dG*dA*d[5mC]*kT*kT*kG; antisense) [compound 1075509]
The “YAP1 (% UTC)” value of the first is lower: 54 % UTC for the first, 81 % UTC for the second.

First: 1074389 (kG*k[5mC]*kA*dG*dA*d[5mC]*dT*dT*dG*dG*d[5mC]*dA*dT*k[5mC]*kA*kG; antisense) [compound 1074389]
Second: 1076533 (kA*kT*kT*dT*dT*dT*dA*dG*dT*d[5mC]*d[5mC]*dA*dG*kT*kG*kG; antisense) [compound 1076533]
The “YAP1 (% UTC)” value of the first is higher: 14 % UTC for the first, 9 % UTC for the second.
